Laboratory results from ChEMBL document CHEMBL6087461, “Cell-Permeable Peptide Inhibitors of the p53-hDM2 Interaction via Foldamer Helix Mimicry and Bis-Thioether Stapling” (J Med Chem, 2025).
Starred links: 1 amine or outer side, 2 acyl side, 3 side chain; linkers in the order of their positions; H or OH if unused. Positions of bridges follow the written chain, without caps; N, C: chain ends. Residues, ends and D or L forms follow the SMILES beside them. *: point of attachment. X9 = CC(C)[C@@H](CNC(N)=O)NC(=O)NC[C@H](CSCc1ccc(-c2ccc(C[*:1])cc2)cc1)NC(=O)NC[C@H](C)N[*:2]; X12 = CC(C)[C@@H](CNC(N)=O)NC(=O)NC[C@H](C)NC(=O)NC[C@H](CSCc1ccc(C[*:1])cc1)N[*:2]; X1 = CC(C)[C@@H](CNC(N)=O)NC(=O)NC[C@H](C)NC(=O)NC[C@H](CSCCCCCC[*:1])N[*:2]; X13 = CC(C)[C@@H](CNC(N)=O)NC(=O)NC[C@H](C)NC(=O)NC[C@H](CSCCCCC[*:1])N[*:2]; X6 = CC(C)[C@@H](CNC(N)=O)NC(=O)NC[C@H](CSCCCCCC[*:1])NC(=O)NC[C@H](C)N[*:2]; X10 = CC(C)[C@@H](CNC(N)=O)NC(=O)NC[C@H](CSCCC[*:1])NC(=O)NC[C@H](C)N[*:2]; X3 = CC(C)[C@@H](CNC(N)=O)NC(=O)NC[C@H](C)NC(=O)NC[C@H](C)N*; CH2CONHCH2CH2NHCOCH2 = O=C(C[*:1])NCCNC(=O)C[*:2]; pXylylene = c1cc(C[*:2])ccc1C[*:1]; X14 = C(=C\C[*:2])/C[*:1]; X11 = C(CCC[*:2])CC[*:1]; X7 = C(CC[*:1])CC[*:2]

What was measured:
[1] = target: Tumour suppressor p53/oncoprotein Mdm2 (Homo sapiens) (UniProt P04637+Q00987); test: PROTAC activity at human MDM2/p53 extracted from Escherichia coli interaction by measuring inhibition of interaction at 100 nM by time-resolved fluorescence energy transfer (TRFRET) detection method relative to control; assay type: protein assay
Chain of Tumour suppressor p53/oncoprotein Mdm2 (Homo sapiens) (P04637 whole entry, looked up): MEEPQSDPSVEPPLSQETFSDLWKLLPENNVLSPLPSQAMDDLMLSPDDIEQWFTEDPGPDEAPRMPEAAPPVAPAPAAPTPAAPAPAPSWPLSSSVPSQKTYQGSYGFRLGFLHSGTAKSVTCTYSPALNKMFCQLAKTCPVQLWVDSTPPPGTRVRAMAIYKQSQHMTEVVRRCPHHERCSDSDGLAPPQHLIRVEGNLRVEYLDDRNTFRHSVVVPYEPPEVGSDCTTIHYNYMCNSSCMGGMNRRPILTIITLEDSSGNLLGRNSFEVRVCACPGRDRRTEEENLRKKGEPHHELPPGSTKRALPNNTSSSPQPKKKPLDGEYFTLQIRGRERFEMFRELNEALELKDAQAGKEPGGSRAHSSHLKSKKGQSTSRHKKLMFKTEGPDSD
Chain of Tumour suppressor p53/oncoprotein Mdm2 (Homo sapiens) (Q00987 whole entry, looked up): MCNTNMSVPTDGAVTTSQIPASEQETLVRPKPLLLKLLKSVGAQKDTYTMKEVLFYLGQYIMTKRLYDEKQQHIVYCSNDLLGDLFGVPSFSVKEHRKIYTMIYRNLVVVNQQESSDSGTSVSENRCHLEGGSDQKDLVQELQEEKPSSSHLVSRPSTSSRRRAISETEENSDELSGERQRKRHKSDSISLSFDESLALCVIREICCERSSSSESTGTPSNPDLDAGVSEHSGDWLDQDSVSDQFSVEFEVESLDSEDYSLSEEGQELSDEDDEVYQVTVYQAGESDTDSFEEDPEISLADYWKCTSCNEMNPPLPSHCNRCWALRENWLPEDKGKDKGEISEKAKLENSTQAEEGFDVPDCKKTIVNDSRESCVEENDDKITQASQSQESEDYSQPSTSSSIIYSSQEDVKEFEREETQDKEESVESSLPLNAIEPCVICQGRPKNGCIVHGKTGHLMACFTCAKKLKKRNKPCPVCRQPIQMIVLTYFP

[2] = target: Tumour suppressor protein p53/Mdm4 (Homo sapiens) (UniProt P04637+O15151); test: PROTAC activity at human DMX/p53 extracted from Escherichia coli interaction at 100 nM by measuring inhibition of interaction by time-resolved fluorescence energy transfer (TRFRET) detection method relative to control; assay type: protein assay
Chain of Tumour suppressor protein p53/Mdm4 (Homo sapiens) (O15151 whole entry, looked up): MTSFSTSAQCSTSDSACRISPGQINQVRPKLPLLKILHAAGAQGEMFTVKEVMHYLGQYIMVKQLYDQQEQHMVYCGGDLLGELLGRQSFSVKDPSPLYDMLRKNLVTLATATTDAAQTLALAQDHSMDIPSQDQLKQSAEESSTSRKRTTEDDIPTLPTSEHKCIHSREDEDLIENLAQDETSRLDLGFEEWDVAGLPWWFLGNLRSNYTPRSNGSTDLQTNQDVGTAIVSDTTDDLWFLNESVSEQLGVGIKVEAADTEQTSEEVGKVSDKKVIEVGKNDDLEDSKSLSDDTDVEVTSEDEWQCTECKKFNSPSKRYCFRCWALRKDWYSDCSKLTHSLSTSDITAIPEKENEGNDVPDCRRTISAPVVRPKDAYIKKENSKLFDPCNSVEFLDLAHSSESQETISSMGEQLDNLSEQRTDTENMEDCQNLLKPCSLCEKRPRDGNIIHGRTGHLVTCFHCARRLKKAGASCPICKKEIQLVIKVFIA
Chain of Tumour suppressor protein p53/Mdm4 (Homo sapiens) (P04637 whole entry, looked up): as the sequence (P04637 whole entry, looked up) above

Row | SMILES | inhibition [1] [%] | inhibition [2] [%]
1 | CC(C)[C@@H](CNC(N)=O)NC(=O)NC[C@H](C)NC(=O)NC[C@H](C)NC(=O)[C@H](Cc1c[nH]c2ccccc12)NC(=O)[C@H](Cc1ccc(O)cc1)NC(=O)[C@@H]1CSCc2ccc(cc2)CSC[C@H](N)C(=O)N[C@@H](CO)C(=O)N[C@@H](Cc2ccccc2)C(=O)N[C@@H](C)C(=O)N1 (H-CSFACYW-X3; linker 1-5 via pXylylene) | 37 | 14
2 | CC(C)[C@@H](CNC(N)=O)NC(=O)NC[C@@H]1CSCCCCCCSC[C@H](N)C(=O)N[C@@H](CO)C(=O)N[C@@H](Cc2ccccc2)C(=O)N[C@@H](C)C(=O)N[C@@H](CCC(=O)O)C(=O)N[C@@H](Cc2ccc(O)cc2)C(=O)N[C@@H](Cc2c[nH]c3ccccc23)C(=O)N[C@@H](C)CNC(=O)N1 (H-CSFAEYW; linker 1-C via X6) | 70 | 54
3 | CC(C)[C@@H](CNC(N)=O)NC(=O)NC[C@H](C)NC(=O)NC[C@H](C)NC(=O)[C@H](Cc1c[nH]c2ccccc12)NC(=O)[C@H](Cc1ccc(O)cc1)NC(=O)[C@H](CCC(=O)O)NC(=O)[C@H](C)NC(=O)[C@H](Cc1ccccc1)NC(=O)[C@H](CO)NC(=O)[C@@H](N)CCCCN (H-KSFAEYW-X3) | 98 | 85
4 | CC(C)[C@@H](CNC(N)=O)NC(=O)NC[C@H](C)NC(=O)NC[C@H](C)NC(=O)[C@H](Cc1c[nH]c2ccccc12)NC(=O)[C@H](Cc1ccc(O)cc1)NC(=O)[C@@H]1CSSC[C@H](NC(=O)[C@@H](N)[C@@H](C)O)C(=O)N[C@@H](Cc2ccccc2)C(=O)N[C@@H](C)C(=O)N1 (H-TCFACYW-X3; disulfide 2-5) | 50 | 23
5 | CC(C)[C@@H](CNC(N)=O)NC(=O)NC[C@H](C)NC(=O)NC[C@H](C)NC(=O)[C@H](Cc1c[nH]c2ccccc12)NC(=O)[C@H](Cc1ccc(O)cc1)NC(=O)[C@@H]1CSC/C=C/CSC[C@H](N)C(=O)N[C@@H](CO)C(=O)N[C@@H](Cc2ccccc2)C(=O)N[C@@H](C)C(=O)N1 (H-CSFACYW-X3; linker 1-5 via X14) | 88 | 68
6 | CC(C)[C@@H](CNC(N)=O)NC(=O)NC[C@H](C)NC(=O)NC[C@H](C)NC(=O)[C@H](Cc1c[nH]c2ccccc12)NC(=O)[C@H](Cc1ccc(O)cc1)NC(=O)[C@@H]1CSCCCCCCSC[C@H](N)C(=O)N[C@@H](CO)C(=O)N[C@@H](Cc2ccccc2)C(=O)N[C@@H](C)C(=O)N1 (H-CSFACYW-X3; linker 1-5 via X11) | 15 | 1
7 | CC(C)[C@@H](CNC(N)=O)NC(=O)NC[C@H](C)NC(=O)NC[C@H](C)NC(=O)[C@H](Cc1c[nH]c2ccccc12)NC(=O)[C@H](Cc1ccc(O)cc1)NC(=O)[C@H](CCC(=O)O)NC(=O)[C@H](C)NC(=O)[C@H](Cc1ccccc1)NC(=O)[C@H](CO)NC(=O)[C@@H](NC(=O)[C@H](CCCNC(=N)N)NC(=O)[C@H](CCCNC(=N)N)NC(=O)[C@@H](N)CCCNC(=N)N)[C@@H](C)O (H-RRRTSFAEYW-X3) | 95 | 81
8 | CC(C)[C@@H](CNC(N)=O)NC(=O)NC[C@H](C)NC(=O)NC[C@H](C)NC(=O)[C@H](Cc1c[nH]c2ccccc12)NC(=O)[C@H](Cc1ccc(O)cc1)NC(=O)[C@@H]1CSCC(=O)NCCNC(=O)CSC[C@H](NC(=O)[C@@H](N)[C@@H](C)O)C(=O)N[C@@H](Cc2ccccc2)C(=O)N[C@@H](C)C(=O)N1 (H-TCFACYW-X3; linker 2-5 via CH2CONHCH2CH2NHCOCH2) | 73 | 38
9 | CC(C)[C@@H](CNC(N)=O)NC(=O)NC[C@H](C)NC(=O)NC[C@H](C)NC(=O)[C@H](Cc1c[nH]c2ccccc12)NC(=O)[C@H](Cc1ccc(O)cc1)NC(=O)[C@@H]1CSCC(=O)NCCNC(=O)CSC[C@H](N)C(=O)N[C@@H](CO)C(=O)N[C@@H](Cc2ccccc2)C(=O)N[C@@H](C)C(=O)N1 (H-CSFACYW-X3; linker 1-5 via CH2CONHCH2CH2NHCOCH2) | 83 | 47
10 | CC(C)[C@@H](CNC(N)=O)NC(=O)NC[C@@H]1CSCc2ccc(cc2)-c2ccc(cc2)CSC[C@H](N)C(=O)N[C@@H](CO)C(=O)N[C@@H](Cc2ccccc2)C(=O)N[C@@H](C)C(=O)N[C@@H](CCC(=O)O)C(=O)N[C@@H](Cc2ccc(O)cc2)C(=O)N[C@@H](Cc2c[nH]c3ccccc23)C(=O)N[C@@H](C)CNC(=O)N1 (H-CSFAEYW; linker 1-C via X9) | 7 | 10

Further lines, results first:

Row | inhibition [1] [%] | inhibition [2] [%] | SMILES
11 | 42 | 2 | CC(C)[C@@H](CNC(N)=O)NC(=O)NC[C@H](C)NC(=O)NC[C@@H]1CSCCCCCCSC[C@H](NC(=O)[C@H](Cc2ccccc2)NC(=O)[C@H](CO)NC(=O)[C@@H](N)[C@@H](C)O)C(=O)N[C@@H](CCCNC(=N)N)C(=O)N[C@@H](Cc2ccc(O)cc2)C(=O)N[C@@H](Cc2c[nH]c3ccccc23)C(=O)N1 (H-TSFCRYW; linker 4-C via X1)
12 | 30 | 12 | CC(C)[C@@H](CNC(N)=O)NC(=O)NC[C@H](C)NC(=O)NC[C@H](C)NC(=O)[C@H](Cc1c[nH]c2ccccc12)NC(=O)[C@H](Cc1ccc(O)cc1)NC(=O)[C@@H]1CSCCCCCSC[C@H](NC(=O)[C@@H](N)[C@@H](C)O)C(=O)N[C@@H](Cc2ccccc2)C(=O)N[C@@H](C)C(=O)N1 (H-TCFACYW-X3; linker 2-5 via X7)
13 | 79 | 47 | CC(C)[C@@H](CNC(N)=O)NC(=O)NC[C@H](C)NC(=O)NC[C@@H]1CSCCCCCSC[C@H](NC(=O)[C@H](Cc2ccccc2)NC(=O)[C@H](CO)NC(=O)[C@@H](N)[C@@H](C)O)C(=O)N[C@@H](CCC(=O)O)C(=O)N[C@@H](Cc2ccc(O)cc2)C(=O)N[C@@H](Cc2c[nH]c3ccccc23)C(=O)N1 (H-TSFCEYW; linker 4-C via X13)
14 | 21 | -4 | CC(C)[C@@H](CNC(N)=O)NC(=O)NC[C@H](C)NC(=O)NC[C@@H]1CSCc2ccc(cc2)CSC[C@H](NC(=O)[C@H](Cc2ccccc2)NC(=O)[C@H](CO)NC(=O)[C@@H](N)[C@@H](C)O)C(=O)N[C@@H](CCC(=O)O)C(=O)N[C@@H](Cc2ccc(O)cc2)C(=O)N[C@@H](Cc2c[nH]c3ccccc23)C(=O)N1 (H-TSFCEYW; linker 4-C via X12)
15 | 15 | 4 | CC(C)[C@@H](CNC(N)=O)NC(=O)NC[C@@H]1CSCCCSC[C@H](NC(=O)[C@H](C)NC(=O)[C@H](Cc2ccccc2)NC(=O)[C@H](CO)NC(=O)[C@@H](N)[C@@H](C)O)C(=O)N[C@@H](Cc2ccc(O)cc2)C(=O)N[C@@H](Cc2c[nH]c3ccccc23)C(=O)N[C@@H](C)CNC(=O)N1 (H-TSFACYW; linker 5-C via X10)
16 | 58 | 16 | CC(C)[C@@H](CNC(N)=O)NC(=O)NC[C@H](C)NC(=O)NC[C@H](C)NC(=O)[C@H](Cc1c[nH]c2ccccc12)NC(=O)[C@H](Cc1ccc(O)cc1)NC(=O)[C@@H]1CSCCCCCSC[C@H](N)C(=O)N[C@@H](CO)C(=O)N[C@@H](Cc2ccccc2)C(=O)N[C@@H](C)C(=O)N1 (H-CSFACYW-X3; linker 1-5 via X7)
17 | 85 | 36 | CC(C)[C@@H](CNC(N)=O)NC(=O)NC[C@H](C)NC(=O)NC[C@@H]1CSCCCCCCSC[C@H](NC(=O)[C@H](Cc2ccccc2)NC(=O)[C@H](CO)NC(=O)[C@@H](N)[C@@H](C)O)C(=O)N[C@@H](CCC(N)=O)C(=O)N[C@@H](Cc2ccc(O)cc2)C(=O)N[C@@H](Cc2c[nH]c3ccccc23)C(=O)N1 (H-TSFCQYW; linker 4-C via X1)
